Among the data in PubChem BioAssay (NCI) are TGI and GI50 values, retold here.

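96-well plates; 48 h exposure; 5 concentrations. Endpoints by linear interpolation between flanking doses. Not reached: highest tested concentration assigned. Here, GI50 denotes the concentration required for 50% inhibition of growth. TGI: concentration producing complete growth inhibition.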

Test systems include NCI/ADR-RES ovarian; SK-MEL-2 melanoma; HCT-116 colon; CAKI-1 renal; RXF 393 renal; DU-145 prostate; OVCAR-5 ovarian; SK-MEL-28 melanoma; CCRF-CEM leukemia; UO-31 renal.
Assay in all cases: NCI-60 cell line screen, 48 h

`COc1cc2c(cc1OC(=O)c1cc3ccccc3[nH]1)N=C[C@@H]1CCCN1C2=O`: the TGI in the experiment with NCI/ADR-RES ovarian is > 100 µM; with SK-MEL-2 melanoma it was 0.55 µM; in the experiment on HCT-116 colon, 3.19 µM; with CAKI-1 renal it was 13.8 µM; in the experiment on RXF 393 renal it was 0.36 µM; with DU-145 prostate it was 11.7 µM. Moreover, the figures for the TGI in the experiment with OVCAR-5 ovarian, in the experiment with SK-MEL-28 melanoma and with CCRF-CEM leukemia were 0.59 µM, 2.21 µM and 1.95 µM, respectively.
On to `CCOC(=O)c1nc2cc(C(F)(F)F)ccc2nc1Nc1ccc(F)cc1`, for which the TGI with NCI/ADR-RES ovarian, with SK-MEL-2 melanoma, in the experiment with HCT-116 colon, with CAKI-1 renal, with RXF 393 renal and in the experiment on DU-145 prostate was > 100 µM throughout. Moreover, the TGI in the experiment on OVCAR-5 ovarian is > 100 µM; with SK-MEL-28 melanoma, > 100 µM; in the experiment on CCRF-CEM leukemia, 66.2 µM.
Consider `COc1ccc(-c2nnc(-c3ccncc3)o2)cc1`, for which the TGI in the experiment on NCI/ADR-RES ovarian, with SK-MEL-2 melanoma, with HCT-116 colon, with CAKI-1 renal, with RXF 393 renal and in the experiment with UO-31 renal was > 100 µM in each case. Moreover, the TGI in the experiment with DU-145 prostate, in the experiment on OVCAR-5 ovarian, with SK-MEL-28 melanoma and in the experiment with CCRF-CEM leukemia was > 100 µM throughout.
For the compound `COc1ccc(S(=O)(=O)Nc2ccc(-c3csc(N4C(=O)/C(=C/c5ccccc5)N=C4c4ccccc4)n3)cc2)cc1Cl`, the TGI in the experiment on NCI/ADR-RES ovarian was > 100 µM; with SK-MEL-2 melanoma, > 100 µM; in the experiment with HCT-116 colon, > 100 µM; with CAKI-1 renal it was > 100 µM; in the experiment with RXF 393 renal, 73.3 µM; with UO-31 renal, 34.1 µM. The TGI in the experiment with DU-145 prostate is 86.8 µM; in the experiment with OVCAR-5 ovarian, > 100 µM; with SK-MEL-28 melanoma, > 100 µM; with CCRF-CEM leukemia it was > 100 µM.
For the compound `C=CCCC(On1c(-c2ccc(Cl)cc2)csc1=S)c1ccccc1` (stereo not drawn), the TGI in the experiment on NCI/ADR-RES ovarian, in the experiment with SK-MEL-2 melanoma, in the experiment with HCT-116 colon, with CAKI-1 renal, in the experiment on RXF 393 renal and in the experiment on UO-31 renal was > 100 µM in each case. The TGI in the experiment on DU-145 prostate, in the experiment on OVCAR-5 ovarian, with SK-MEL-28 melanoma and with CCRF-CEM leukemia was > 100 µM in each case.
For `COc1ccc(/C=N\NC(=O)Nc2cccc3ccccc23)cc1`, the TGI was > 100 µM in the experiment with NCI/ADR-RES ovarian; 43.7 µM in the experiment with SK-MEL-2 melanoma; > 100 µM in the experiment on HCT-116 colon; 35.3 µM with CAKI-1 renal; > 100 µM in the experiment on UO-31 renal; > 100 µM in the experiment with DU-145 prostate. The TGI in the experiment with OVCAR-5 ovarian, with SK-MEL-28 melanoma and with CCRF-CEM leukemia was > 100 µM each time.
Regarding `O=c1oc2c/c(=C\c3ccccc3)c(=O)c3cccc1c3-2`, the TGI is > 100 µM in the experiment on NCI/ADR-RES ovarian; 71.2 µM with HCT-116 colon; 55.8 µM in the experiment on CAKI-1 renal; 72.6 µM with RXF 393 renal; 85.5 µM with UO-31 renal; > 100 µM in the experiment on DU-145 prostate. In addition, the TGI with OVCAR-5 ovarian and in the experiment on SK-MEL-28 melanoma was > 100 µM throughout.
`CCCCCCCCCCCCCCCCCCOc1ccc(/C=C/C2=[N+](CCCl)CCO2)cc1`: the TGI in the experiment on NCI/ADR-RES ovarian, with SK-MEL-2 melanoma, in the experiment on HCT-116 colon, in the experiment with CAKI-1 renal, in the experiment with UO-31 renal and with DU-145 prostate was > 100 µM throughout. In addition, the TGI with OVCAR-5 ovarian, in the experiment on SK-MEL-28 melanoma and in the experiment with CCRF-CEM leukemia was > 100 µM in each case.
`CCOC(=O)C1=CC(C)(C(=O)OCC)Nc2c(nc(SC)n(C)c2=O)N1` (stereo not drawn): the TGI with NCI/ADR-RES ovarian, in the experiment on SK-MEL-2 melanoma, with HCT-116 colon, in the experiment on CAKI-1 renal, in the experiment with UO-31 renal and in the experiment on DU-145 prostate was > 10 µM each time. Moreover, the TGI with OVCAR-5 ovarian, with SK-MEL-28 melanoma and in the experiment on CCRF-CEM leukemia was > 10 µM in each case.
Turning to `CCOC(=O)c1cn(CC)c2cc3c(cc2c1=O)CCS3(=O)=O`, the TGI with NCI/ADR-RES ovarian, with SK-MEL-2 melanoma, in the experiment with HCT-116 colon, in the experiment with RXF 393 renal, with UO-31 renal and with DU-145 prostate was > 100 µM throughout. Besides, the TGI in the experiment with OVCAR-5 ovarian, in the experiment on SK-MEL-28 melanoma and with CCRF-CEM leukemia was > 100 µM in each case.
With `Cn1cc(-c2nc(-c3c[nH]c4ccncc34)cs2)c2cc(F)ccc21`, the GI50 with NCI/ADR-RES ovarian is 1930 nM; in the experiment with SK-MEL-2 melanoma, 1920 nM; in the experiment on HCT-116 colon, 1630 nM; in the experiment with CAKI-1 renal, 1650 nM; in the experiment with RXF 393 renal it was 1570 nM; in the experiment with UO-31 renal it was 1570 nM. For the same compound, the GI50 in the experiment with DU-145 prostate is 1710 nM; in the experiment on OVCAR-5 ovarian, 1680 nM; in the experiment on SK-MEL-28 melanoma, 1630 nM. The TGI in the experiment on NCI/ADR-RES ovarian was determined as 4.19 µM; in the experiment with SK-MEL-2 melanoma, 3.58 µM; in the experiment with HCT-116 colon, 3.28 µM; in the experiment on CAKI-1 renal, 3.04 µM; in the experiment on RXF 393 renal it was 3.04 µM; with UO-31 renal, 2.92 µM. In addition, the TGI with DU-145 prostate worked out at 3.14 µM; in the experiment with OVCAR-5 ovarian it was 3.11 µM; with SK-MEL-28 melanoma, 3.04 µM.
Regarding `COc1ccc(-c2nnc(CCCCCCCCc3nnc(-c4ccc(OC)cc4)n3N)n2N)cc1`, the TGI is > 31.6 µM in the experiment with NCI/ADR-RES ovarian; > 100 µM in the experiment on SK-MEL-2 melanoma; > 100 µM with HCT-116 colon; > 100 µM in the experiment with CAKI-1 renal; > 100 µM in the experiment with UO-31 renal; > 100 µM with DU-145 prostate. The TGI with OVCAR-5 ovarian, in the experiment with SK-MEL-28 melanoma and with CCRF-CEM leukemia was > 100 µM throughout.
With `Cc1cc2c(c(C(=O)NCCC(=O)N[C@@H](C)C(=O)OCc3ccccc3)c1)Oc1c(cc(C)cc1C(=O)NCCC(=O)N[C@@H](C)C(=O)OCc1ccccc1)S2`, the TGI with NCI/ADR-RES ovarian, with SK-MEL-2 melanoma, in the experiment with HCT-116 colon, in the experiment with CAKI-1 renal, with RXF 393 renal and with UO-31 renal was > 100 µM in each case. Moreover, the TGI in the experiment with DU-145 prostate, in the experiment on OVCAR-5 ovarian and in the experiment with CCRF-CEM leukemia was > 100 µM in each case.
